Assay results published in paper PMC10714400, “Antimicrobial Peptide–Peptoid Hybrids with and without Membrane Disruption” (ACS Infectious Diseases, 2023).
Where a SMILES comes first, the peptide text is derived from it. [ ]: non-standard residue; d: D form. Nleu = CC(C)CNCC(=O)O; Nlys = NCCCCNCC(=O)O

Tests used:
P. aeruginosa PAO1 [1] = assay: Transmission electron microscopy (TEM); type: cell-based, Pseudomonas aeruginosa; settings: P. aeruginosa PAO1, 10 × MIC, […] MH at pH 8.5, 2 h at 37 °C
Description: Scale bars are 500 nm and 1 μm. Red arrows: membrane perturbations. Blue arrows: intracellular aggregation. Yellow arrows: empty area within the cell.
(§1) Just before the samples were further prepared for the microscopy, surviving bacteria were quantified by plating 10-fold dilutions of samples in sterilized normal saline (NaCl 0.9%) on LB agar plates. […] The assay was performed in triplicate. Each bacteria sample was centrifuged at 12,000 rpm for 3 min, and the supernatant was discarded. The samples were then further processed and imaged using our previously described protocol.[64]

P. aeruginosa PAO1 [2] = assay: Bacterial count after treatment, before TEM sample preparation; type: cell-based, Pseudomonas aeruginosa; settings: P. aeruginosa PAO1, […] MH pH 8.5, 10x MIC
Description: as §1
8. Transmission electron microscopy (TEM)
Table S4: Bacterial counts, 2 hours after treatment, before TEM sample preparation. Data represents triplicates.
Bacteria count after treatment at 10x MIC and 2 h of incubation at 37 °C
Control (non-treated cells) 1 × 10^8 CFU (100)

Compound | TEM micrographs, changes in treated bacteria (P. aeruginosa PAO1 [1]) | Bacteria count after treatment at 10x MIC and 2 h of incubation at 37 °C (% of control) (P. aeruginosa PAO1 [2])
CC(C)C[C@H](NC(=O)CN(CC(C)C)C(=O)[C@H](CC(C)C)NC(=O)CN(CCCCN)C(=O)[C@H](CC(C)C)NC(=O)CN(CC(C)C)C(=O)[C@H](CCCCN)NC(=O)CN(CC(C)C)C(=O)[C@H](CC(C)C)NC(=O)CN(CCCCN)C(=O)[C@@H](N)CCCCN)C(N)=O [EB9, KkLlKlLkLlL] (H-K[Nlys]L[Nleu]K[Nleu]L[Nlys]L[Nleu]L-NH2) | aggregation of intracellular components as the major effect | 0.01 % of control
H-KKLLKLLKLLL-NH2 [ln65, reference compound] | strong membrane-disruptive activity | 0.01 % of control
